Data from PubChem BioAssay (NCI).
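Values below derive from 48-hour exposures of cells grown in 96-well plates, with endpoints linearly interpolated between the two concentrations bracketing the appropriate inhibition level. GI50 is the concentration that inhibits growth by half. The concentration for full growth arrest is given as TGI.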

Tests used:
Assay in all cases: NCI-60 cell line screen, 48 h
RXF-631 renal = test system: RXF-631 renal
786-0 renal = test system: 786-0 renal
KM20L2 colon = test system: KM20L2 colon
HCT-15 colon = test system: HCT-15 colon
HT29 colon = test system: HT29 colon
ACHN renal = test system: ACHN renal
XF 498 CNS = test system: XF 498 CNS
NCI-H460 lung = test system: NCI-H460 lung
SNB-19 CNS = test system: SNB-19 CNS
UACC-62 melanoma = test system: UACC-62 melanoma
SW-620 colon = test system: SW-620 colon
SN12C renal = test system: SN12C renal
SF-295 CNS = test system: SF-295 CNS
OVCAR-4 ovarian = test system: OVCAR-4 ovarian
DLD-1 colon = test system: DLD-1 colon
HCC-2998 colon = test system: HCC-2998 colon
M14 melanoma = test system: M14 melanoma
SK-MEL-5 melanoma = test system: SK-MEL-5 melanoma
SF-539 CNS = test system: SF-539 CNS
SNB-75 CNS = test system: SNB-75 CNS
NCI-H23 lung = test system: NCI-H23 lung
LXFL 529 NSCLC = test system: LXFL 529 NSCLC
SNB-78 CNS = test system: SNB-78 CNS
SK-OV-3 ovarian = test system: SK-OV-3 ovarian
CAKI-1 renal = test system: CAKI-1 renal
HOP-18 NSCLC = test system: HOP-18 NSCLC
COLO 205 colon = test system: COLO 205 colon
SK-MEL-28 melanoma = test system: SK-MEL-28 melanoma
DMS 114 small cell lung = test system: DMS 114 small cell lung
SF-268 CNS = test system: SF-268 CNS
CCRF-CEM leukemia = test system: CCRF-CEM leukemia
M19-MEL melanoma = test system: M19-MEL melanoma
IGROV1 ovarian = test system: IGROV1 ovarian
TK-10 renal = test system: TK-10 renal
OVCAR-3 ovarian = test system: OVCAR-3 ovarian
EKVX NSCLC = test system: EKVX NSCLC
HCT-116 colon = test system: HCT-116 colon
LOX IMVI melanoma = test system: LOX IMVI melanoma
A498 renal = test system: A498 renal
UO-31 renal = test system: UO-31 renal
HOP-62 NSCLC = test system: HOP-62 NSCLC
HL-60(TB) leukemia = test system: HL-60(TB) leukemia
OVCAR-8 ovarian = test system: OVCAR-8 ovarian
U251 CNS = test system: U251 CNS

Q: How did the GI50 (RXF-631 renal) turn out when c1ccc([CH2][Sn]([CH2]c2ccccc2)([S]c2cccc3cccnc23)[S]c2cccc3cccnc23)cc1 was run?
A: 225 nM

Q: And the TGI (RXF-631 renal)?
A: 552 nM

Q: And the GI50 (786-0 renal)?
A: 314 nM

Q: What about the TGI (786-0 renal) of the same compound?
A: 1050 nM

Q: What about the GI50 (KM20L2 colon) of the same compound?
A: 365 nM

Q: What about the TGI (KM20L2 colon) of the same compound?
A: 1140 nM

Q: What about the GI50 (HCT-15 colon) of the same compound?
A: 200 nM

Q: And the TGI (HCT-15 colon)?
A: 476 nM

Q: And the GI50 (HT29 colon)?
A: 175 nM

Q: What about the TGI (HT29 colon) of the same compound?
A: 390 nM

Q: What about the GI50 (ACHN renal) of the same compound?
A: 302 nM

Q: And the TGI (ACHN renal)?
A: 985 nM

Q: And the GI50 (XF 498 CNS)?
A: 109 nM

Q: And the TGI (XF 498 CNS)?
A: 367 nM

Q: What about the GI50 (NCI-H460 lung) of the same compound?
A: 273 nM

Q: What about the TGI (NCI-H460 lung) of the same compound?
A: 1010 nM

Q: And the GI50 (SNB-19 CNS)?
A: 853 nM

Q: What about the TGI (SNB-19 CNS) of the same compound?
A: 2070 nM

Q: And the GI50 (UACC-62 melanoma)?
A: 211 nM

Q: And the TGI (UACC-62 melanoma)?
A: 496 nM

Q: And the GI50 (SW-620 colon)?
A: 210 nM

Q: And the TGI (SW-620 colon)?
A: 813 nM

Q: And the GI50 (SN12C renal)?
A: 303 nM

Q: What about the TGI (SN12C renal) of the same compound?
A: 1190 nM

Q: And the GI50 (SF-295 CNS)?
A: 394 nM

Q: And the TGI (SF-295 CNS)?
A: 2290 nM

Q: And the GI50 (OVCAR-4 ovarian)?
A: 172 nM

Q: And the TGI (OVCAR-4 ovarian)?
A: 422 nM

Q: And the GI50 (DLD-1 colon)?
A: 282 nM

Q: What about the TGI (DLD-1 colon) of the same compound?
A: 886 nM

Q: And the GI50 (HCC-2998 colon)?
A: 139 nM

Q: And the TGI (HCC-2998 colon)?
A: 334 nM

Q: What about the GI50 (M14 melanoma) of the same compound?
A: 221 nM

Q: And the TGI (M14 melanoma)?
A: 511 nM

Q: And the GI50 (SK-MEL-5 melanoma)?
A: 299 nM

Q: And the TGI (SK-MEL-5 melanoma)?
A: 1180 nM

Q: What about the GI50 (SF-539 CNS) of the same compound?
A: 260 nM

Q: What about the TGI (SF-539 CNS) of the same compound?
A: 662 nM

Q: And the GI50 (SNB-75 CNS)?
A: 749 nM

Q: What about the TGI (SNB-75 CNS) of the same compound?
A: 2020 nM

Q: What about the GI50 (NCI-H23 lung) of the same compound?
A: 273 nM

Q: What about the TGI (NCI-H23 lung) of the same compound?
A: 998 nM

Q: What about the GI50 (LXFL 529 NSCLC) of the same compound?
A: 101 nM

Q: And the TGI (LXFL 529 NSCLC)?
A: 244 nM

Q: And the GI50 (SNB-78 CNS)?
A: 382 nM

Q: What about the TGI (SNB-78 CNS) of the same compound?
A: 1500 nM

Q: What about the GI50 (SK-OV-3 ovarian) of the same compound?
A: 1760 nM

Q: What about the TGI (SK-OV-3 ovarian) of the same compound?
A: 3150 nM

Q: What about the GI50 (CAKI-1 renal) of the same compound?
A: 420 nM

Q: And the TGI (CAKI-1 renal)?
A: 1020 nM

Q: What about the GI50 (HOP-18 NSCLC) of the same compound?
A: 246 nM

Q: And the TGI (HOP-18 NSCLC)?
A: 840 nM

Q: What about the GI50 (COLO 205 colon) of the same compound?
A: 80.1 nM

Q: And the TGI (COLO 205 colon)?
A: 366 nM

Q: What about the GI50 (SK-MEL-28 melanoma) of the same compound?
A: 201 nM

Q: What about the TGI (SK-MEL-28 melanoma) of the same compound?
A: 864 nM

Q: And the GI50 (DMS 114 small cell lung)?
A: 175 nM

Q: And the TGI (DMS 114 small cell lung)?
A: 378 nM

Q: And the GI50 (SF-268 CNS)?
A: 489 nM

Q: And the TGI (SF-268 CNS)?
A: 2300 nM

Q: What about the GI50 (CCRF-CEM leukemia) of the same compound?
A: 102 nM

Q: And the TGI (CCRF-CEM leukemia)?
A: 686 nM

Q: And the GI50 (M19-MEL melanoma)?
A: 276 nM

Q: And the TGI (M19-MEL melanoma)?
A: 739 nM

Q: What about the GI50 (IGROV1 ovarian) of the same compound?
A: 289 nM

Q: What about the TGI (IGROV1 ovarian) of the same compound?
A: 849 nM

Q: What about the GI50 (TK-10 renal) of the same compound?
A: 326 nM

Q: And the TGI (TK-10 renal)?
A: 1060 nM

Q: And the GI50 (OVCAR-3 ovarian)?
A: 136 nM

Q: And the TGI (OVCAR-3 ovarian)?
A: 383 nM

Q: And the GI50 (EKVX NSCLC)?
A: 666 nM

Q: And the TGI (EKVX NSCLC)?
A: 2030 nM

Q: What about the GI50 (HCT-116 colon) of the same compound?
A: 165 nM

Q: And the TGI (HCT-116 colon)?
A: 351 nM

Q: What about the GI50 (LOX IMVI melanoma) of the same compound?
A: 215 nM

Q: What about the TGI (LOX IMVI melanoma) of the same compound?
A: 442 nM

Q: What about the GI50 (A498 renal) of the same compound?
A: 288 nM

Q: What about the TGI (A498 renal) of the same compound?
A: 950 nM

Q: And the GI50 (UO-31 renal)?
A: 187 nM

Q: And the TGI (UO-31 renal)?
A: 399 nM

Q: And the GI50 (HOP-62 NSCLC)?
A: 764 nM

Q: And the TGI (HOP-62 NSCLC)?
A: 6940 nM

Q: And the GI50 (HL-60(TB) leukemia)?
A: 273 nM

Q: And the TGI (HL-60(TB) leukemia)?
A: 687 nM

Q: And the GI50 (OVCAR-8 ovarian)?
A: 361 nM

Q: And the TGI (OVCAR-8 ovarian)?
A: 1400 nM

Q: And the GI50 (U251 CNS)?
A: 341 nM

Q: And the TGI (U251 CNS)?
A: 1140 nM
